Assay results: patent US11472799B2, “Serine threonine kinase (AKT) degradation / disruption compounds and methods of use” (Icahn School of Medicine at Mount Sinai, priority 2018, dated 2022)

Legend:
AKT [1] = assay: Western blot of AKT protein levels in PC-3 cells; assay type: cell-based, human; conditions: for AKT protein levels: 1 μM for 24 h (FIGS. 11, 12); for suppression of AKT protein level and AKT activity: 1 μM (FIGS. 11 and 12)
Procedure: (§1) PC-3, U87MG, HCC1143, MDA-MB-231, MDA-MB-468, BT474 and MCF-7 cell lines were purchased from ATCC. Cell lines were regularly tested in the lab for mycoplasma. All cells were cultured at 37° C. and 5% CO2. PC-3, U87MG, MDA-MB-231, MCF-7 and BT474 cells were cultured in 1×DMEM (Corning, 10-013-CV) with 10% fetal bovine serum (Atlanta Biologicals S11150) and 1× Penicillin/Streptomycin. HCC1143 cells were cultured in RPMI (Corning, 10-040-CV) medium with 10% fetal bovine serum (Atlanta Biologicals S11150) and 1× Penicillin/Streptomycin. Cells were split using 0.05% or 0.25% trypsin (Corning 25-051-Cl or 25-053-Cl, respectively) before they reached full confluence and media was changed every 3-4 days. Cells were treated with compounds individually at different concentrations for 24 hrs. Cells were treated with DMSO, VHL, or PML alone as controls.
(§2) Cells were lysed in 2× sample buffer (125 mM Tris-HCl at pH 6.8, 10% βME, 2% SDS, 20% glycerol, 0.05% Bromophenol Blue, 8 M urea). Protein lysates were loaded into 4-12% Bis-Tris gels and resolved by electrophoresis. Samples were then blotted on PVDF membrane (Millipore IPVH00010) using the wet transfer technique (Invitrogen). Membranes were blocked in 5% milk-TBST for 1 hour, washed in TBST for 10 min, and incubated in primary antibody in 5% milk-TBST or 5% BSA-TBST at 4° C. for 16 h. Membranes were rinsed (3×6 min) in TBST and incubated in horseradish peroxidase-conjugated secondary antibodies in 5% milk-TBST for 1 hour and rinsed again in TBST (3×6 min). Membranes were visualized using the chemiluminescence system (Thermo 34080, 37075) on autoradiography film (Denville E3018). Primary Antibodies: R-actin (Sigma A5316), p-AKT (Ser473 CST-9721), total AKT (CST-9272), p-S6 (Ser240/244, CST-5364), p-PRAS40 (Thr246, CST-2997). Secondary Antibodies: Mouse (Thermo 31432), Rabbit (Thermo 31460).

AKT [2] = assay: Western blot of AKT protein levels and downstream signaling in BT474 cells; assay type: cell-based, human; conditions: Western blot (FIGS. 1, 3, 4)
Procedure: as §1, §2

Question: Nc1ncccc1-c1nc2ccc(-c3ccccc3)nc2n1-c1ccc(C2(N)CCC2)cc1 [ARQ-092, 3-(3-(4-(1-Aminocyclobutyl)phenyl)-5-phenyl-3H-imidazo[4,5-b]pyridin-2-yl)pyridin-2-amine, reference compound] was tested. Which AKT protein levels (AKT [1]) did it give?
Answer: The AKT protein levels was “no effect”.

Question: How did the AKT protein levels (AKT [1]) turn out when CCn1c(-c2nonc2N)nc2c(C#CC(C)(C)O)ncc(OC[C@H]3CCCNC3)c21 [GSK690693, 4-(2-(4-amino-1,2,5-oxadiazol-3-yl)-1-ethyl-7-{[(3S)-3-piperidinylmethyl]oxy}-1H-imidazo[4,5-c]pyridin-4-yl)-2-methyl-3-butyn-2-ol, reference compound] was run?
Answer: Its AKT protein levels is “no effect”.

Question: Cc1ncsc1-c1ccc(CNC(=O)[C@@H]2C[C@@H](O)CN2C(=O)[C@@H](NC(=O)CCCCCCCCCCCC(=O)N2CCN(CC[C@H](NC(=O)C3(N)CCN(c4ncnc5[nH]ccc45)CC3)c3ccc(Cl)cc3)CC2)C(C)(C)C)cc1 [XF050-144, 4-amino-N-((S)-1-(4-chlorophenyl)-3-(4-(13-(((S)-1-((2S,4R)-4-hydroxy-2-((4-(4-methylthiazol-5-yl)benzyl)carbamoyl)pyrrolidin-1-yl)-3,3-dimethyl-1-oxobutan-2-yl)amino)-13-oxotridecanoyl)piperazin-1-yl)propyl)-1-(7H-pyrrolo[2,3-d]pyrimidin-4-yl)piperidine-4-carboxamide] was tested. Which “suppression of AKT protein level and AKT activity” value (shortened to “suppression”) (AKT [2]) did it give?
Answer: Its value is “effective in suppressing both AKT protein level and AKT activity”.

Question: With Cc1ncsc1-c1ccc(CNC(=O)[C@@H]2C[C@@H](O)CN2C(=O)[C@@H](NC(=O)CCCCCCCCCCCCC(=O)N2CCN(CC[C@H](NC(=O)C3(N)CCN(c4ncnc5[nH]ccc45)CC3)c3ccc(Cl)cc3)CC2)C(C)(C)C)cc1 [XF050-145, 4-amino-N-((S)-1-(4-chlorophenyl)-3-(4-(14-(((S)-1-((2S,4R)-4-hydroxy-2-((4-(4-methylthiazol-5-yl)benzyl)carbamoyl)pyrrolidin-1-yl)-3,3-dimethyl-1-oxobutan-2-yl)amino)-14-oxotetradecanoyl)piperazin-1-yl)propyl)-1-(7H-pyrrolo[2,3-d]pyrimidin-4-yl)piperidine-4-carboxamide] as the compound, how does the “suppression” value (AKT [2]) read?
Answer: Its value is “effective in suppressing both AKT protein level and AKT activity”.

Question: For Cc1ncsc1-c1ccc([C@H](C)NC(=O)[C@@H]2C[C@@H](O)CN2C(=O)[C@@H](NC(=O)CCCCCCCCCC(=O)N2CCN(CC[C@H](NC(=O)C3(N)CCN(c4ncnc5[nH]ccc45)CC3)c3ccc(Cl)cc3)CC2)C(C)(C)C)cc1 [XF050-167, 4-amino-N-((S)-1-(4-chlorophenyl)-3-(4-(11-(((S)-1-((2S,4R)-4-hydroxy-2-(((S)-1-(4-(4-methylthiazol-5-yl)phenyl)ethyl)carbamoyl)pyrrolidin-1-yl)-3,3-dimethyl-1-oxobutan-2-yl)amino)-11-oxoundecanoyl)piperazin-1-yl)propyl)-1-(7H-pyrrolo[2,3-d]pyrimidin-4-yl)piperidine-4-carboxamide], which “suppression” value (AKT [2]) is on record?
Answer: Its value is “effective in suppressing both AKT protein level and AKT activity”.

Question: NC1(C(=O)N[C@@H](CCN2CCN(C(=O)CCOCCOCCOCCOCCOCCOCCNc3cccc4c3C(=O)N(C3CCC(=O)NC3=O)C4=O)CC2)c2ccc(Cl)cc2)CCN(c2ncnc3[nH]ccc23)CC1 (stereo partly drawn) [XF056-33, 4-amino-N-((1S)-1-(4-chlorophenyl)-3-(4-(1-((2-(2,6-dioxopiperidin-3-yl)-1,3-dioxoisoindolin-4-yl)amino)-3,6,9,12,15,18-hexaoxahenicosan-21-oyl)piperazin-1-yl)propyl)-1-(7H-pyrrolo[2,3-d]pyrimidin-4-yl)piperidine-4-carboxamide] was tested. Which “suppression” value (AKT [2]) did it give?
Answer: The value was “effective in suppressing both AKT protein level and AKT activity”.

Question: For NC1(C(=O)N[C@@H](CCN2CCN(C(=O)CCOCCOCCOCCOCCOCCOCCOCCOCCNc3cccc4c3C(=O)N(C3CCC(=O)NC3=O)C4=O)CC2)c2ccc(Cl)cc2)CCN(c2ncnc3[nH]ccc23)CC1 (stereo partly drawn) [XF056-34, 4-amino-N-((1S)-1-(4-chlorophenyl)-3-(4-(1-((2-(2,6-dioxopiperidin-3-yl)-1,3-dioxoisoindolin-4-yl)amino)-3,6,9,12,15,18,21,24-octaoxaheptacosan-27-oyl)piperazin-1-yl)propyl)-1-(7H-pyrrolo[2,3-d]pyrimidin-4-yl)piperidine-4-carboxamide], which “suppression” value (AKT [2]) is on record?
Answer: Its value is “effective in suppressing both AKT protein level and AKT activity”.

Question: NC1(C(=O)N[C@@H](CCN2CCN(C(=O)CCOCCOCCOCCOCCOCCOCCOCCOCCOCCNc3cccc4c3C(=O)N(C3CCC(=O)NC3=O)C4=O)CC2)c2ccc(Cl)cc2)CCN(c2ncnc3[nH]ccc23)CC1 (stereo partly drawn) [XF056-35, 4-amino-N-((1S)-1-(4-chlorophenyl)-3-(4-(1-((2-(2,6-dioxopiperidin-3-yl)-1,3-dioxoisoindolin-4-yl)amino)-3,6,9,12,15,18,21,24,27-nonaoxatriacontan-30-oyl)piperazin-1-yl)propyl)-1-(7H-pyrrolo[2,3-d]pyrimidin-4-yl)piperidine-4-carboxamide] was tested. Which “suppression” value (AKT [2]) did it give?
Answer: The value was “effective in suppressing both AKT protein level and AKT activity”.

Question: Which “suppression” value (AKT [2]) does the source give for NC1(C(=O)N[C@@H](CCN2CCN(C(=O)CCOCCOCCOCCOCCOCCOc3cccc4c3C(=O)N(C3CCC(=O)NC3=O)C4=O)CC2)c2ccc(Cl)cc2)CCN(c2ncnc3[nH]ccc23)CC1 (stereo partly drawn) [XF056-37, 4-amino-N-((1S)-1-(4-chlorophenyl)-3-(4-(1-((2-(2,6-dioxopiperidin-3-yl)-1,3-dioxoisoindolin-4-yl)oxy)-3,6,9,12,15-pentaoxaoctadecan-18-oyl)piperazin-1-yl)propyl)-1-(7H-pyrrolo[2,3-d]pyrimidin-4-yl)piperidine-4-carboxamide] here?
Answer: Its value is “effective in suppressing both AKT protein level and AKT activity”.

Question: Which “suppression” value (AKT [2]) does the source give for C[C@@H]1C[C@@H](O)c2ncnc(N3CCN(C(=O)[C@H](CNCCC(=O)NCCCCCCCCCc4cccc5c4C(=O)N(C4CCC(=O)NC4=O)C5=O)c4ccc(Cl)cc4)CC3)c21 (stereo partly drawn) [XF056-93, 3-(((S)-2-(4-chlorophenyl)-3-(4-((5R,7R)-7-hydroxy-5-methyl-6,7-dihydro-5H-cyclopenta[d]pyrimidin-4-yl)piperazin-1-yl)-3-oxopropyl)amino)-N-(9-(2-(2,6-dioxopiperidin-3-yl)-1,3-dioxoisoindolin-4-yl)nonyl)propanamide] here?
Answer: The value was “effective in suppressing both AKT protein level and AKT activity”.

Question: Cc1ncsc1-c1ccc(CNC(=O)[C@@H]2C[C@@H](O)CN2C(=O)[C@@H](NC(=O)CCCCCCCNC(=O)CCc2cccc(-c3ccc4nc(-c5cccnc5N)n(-c5ccc(C6(N)CCC6)cc5)c4n3)c2)C(C)(C)C)cc1 [XF067-15, (2S,4R)-1-((S)-2-(8-(3-(3-(3-(4-(1-aminocyclobutyl)phenyl)-2-(2-aminopyridin-3-yl)-3H-imidazo[4,5-b]pyridin-5-yl)phenyl)propanamido)octanamido)-3,3-dimethylbutanoyl)-4-hydroxy-N-(4-(4-methylthiazol-5-yl)benzyl)pyrrolidine-2-carboxamide] was tested. Which “suppression” value (AKT [1]) did it give?
Answer: Its value is “effective in suppressing AKT protein level and AKT activity”.

Question: How did the “suppression” value (AKT [1]) turn out when Cc1ncsc1-c1ccc(CNC(=O)[C@@H]2C[C@@H](O)CN2C(=O)[C@@H](NC(=O)CCCCCCCCNC(=O)CCc2cccc(-c3ccc4nc(-c5cccnc5N)n(-c5ccc(C6(N)CCC6)cc5)c4n3)c2)C(C)(C)C)cc1 [XF067-16, (2S,4R)-1-((S)-2-(9-(3-(3-(3-(4-(1-aminocyclobutyl)phenyl)-2-(2-aminopyridin-3-yl)-3H-imidazo[4,5-b]pyridin-5-yl)phenyl)propanamido)nonanamido)-3,3-dimethylbutanoyl)-4-hydroxy-N-(4-(4-methylthiazol-5-yl)benzyl)pyrrolidine-2-carboxamide] was run?
Answer: Its value is “effective in suppressing AKT protein level and AKT activity”.

Question: With Cc1ncsc1-c1ccc(CNC(=O)[C@@H]2C[C@@H](O)CN2C(=O)[C@@H](NC(=O)CCCCCCCCCNC(=O)CCc2cccc(-c3ccc4nc(-c5cccnc5N)n(-c5ccc(C6(N)CCC6)cc5)c4n3)c2)C(C)(C)C)cc1 [XF067-17, (2S,4R)-1-((S)-2-(10-(3-(3-(3-(4-(1-aminocyclobutyl)phenyl)-2-(2-aminopyridin-3-yl)-3H-imidazo[4,5-b]pyridin-5-yl)phenyl)propanamido)decanamido)-3,3-dimethylbutanoyl)-4-hydroxy-N-(4-(4-methylthiazol-5-yl)benzyl)pyrrolidine-2-carboxamide] as the compound, how does the “suppression” value (AKT [1]) read?
Answer: The value was “effective in suppressing AKT protein level and AKT activity”.
